Assay results reported in BindingDB's records for doi:10.7270/Q29G5K8R (Burnham Center For Chemical Genomics, 2010).
pEC50: −log10 of the molar value.

Molecular target: Intestinal-type alkaline phosphatase (Homo sapiens, UniProt P09923)
Test: activation of human intestinal alkaline phosphatase – biochemical, dose response (AID 488873)

Sequence of Intestinal-type alkaline phosphatase (P09923 whole entry): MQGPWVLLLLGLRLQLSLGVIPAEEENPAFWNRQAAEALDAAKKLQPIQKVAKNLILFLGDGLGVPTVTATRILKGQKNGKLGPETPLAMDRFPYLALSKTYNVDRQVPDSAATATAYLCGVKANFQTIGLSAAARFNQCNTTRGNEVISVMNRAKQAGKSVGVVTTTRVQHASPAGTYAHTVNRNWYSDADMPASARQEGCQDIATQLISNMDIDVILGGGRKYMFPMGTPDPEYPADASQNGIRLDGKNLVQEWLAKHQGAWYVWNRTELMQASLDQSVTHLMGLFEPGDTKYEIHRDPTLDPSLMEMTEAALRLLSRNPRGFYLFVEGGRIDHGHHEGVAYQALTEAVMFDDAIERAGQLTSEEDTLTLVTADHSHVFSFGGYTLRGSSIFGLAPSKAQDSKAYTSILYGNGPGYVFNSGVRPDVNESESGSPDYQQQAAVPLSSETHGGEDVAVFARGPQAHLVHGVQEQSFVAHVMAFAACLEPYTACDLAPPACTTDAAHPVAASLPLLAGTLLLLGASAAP

Compound	pEC50
CN(CCO)c1ccc(CN=Nc2ccc([N+](=O)[O-])cc2S(=O)(=O)Nc2ccccc2C(=O)O)cc1	4.58
Oc1ccc(CN=Nc2cc(N3CCCC3)nc(N3CCCC3)n2)cc1O [(4Z)-4-[[2-(2,6-dipyrrolidin-1-ylpyrimidin-4-yl)hydrazinyl]methylidene]-2-hydroxycyclohexa-2,5-dien-1-one]	< 4.00
C#CCOCCOCCOCCNc1nc(N2CCN(C(=O)CCCCCCCCCCNC(=O)[C@@H](CCC(=O)O)n3cc(CCCCCN)nn3)CC2)nc(N2CCN(C(=O)CCCCCCCCCCNC(=O)[C@H]([C@@H](C)CC)n3cc(CCCCCN)nn3)CC2)n1 [KI-KE]	< 4.00
O=C1CC(=O)c2c(O)cc(O)c(O)c2C1=O [4,5,7,8-tetrahydroxy-1,2-naphthoquinone]	< 4.00
O=C(NN=CC1=CC(=O)C(=O)CC1)NN=CC1=CC(=O)C(=O)CC1 [1,3-bis[[(Z)-(3-hydroxy-4-oxocyclohexa-2,5-dien-1-ylidene)methyl]amino]urea]	4.18
Cc1cc(=O)[nH]c(N=NCc2ccc(O)c(O)c2)n1 [MLS001194906]	4.18
